Assay [1] deals with T1, rat ASIC3 (rASIC3) (Rattus norvegicus, UniProt O35240).
T1 sequence (O35240 1-533): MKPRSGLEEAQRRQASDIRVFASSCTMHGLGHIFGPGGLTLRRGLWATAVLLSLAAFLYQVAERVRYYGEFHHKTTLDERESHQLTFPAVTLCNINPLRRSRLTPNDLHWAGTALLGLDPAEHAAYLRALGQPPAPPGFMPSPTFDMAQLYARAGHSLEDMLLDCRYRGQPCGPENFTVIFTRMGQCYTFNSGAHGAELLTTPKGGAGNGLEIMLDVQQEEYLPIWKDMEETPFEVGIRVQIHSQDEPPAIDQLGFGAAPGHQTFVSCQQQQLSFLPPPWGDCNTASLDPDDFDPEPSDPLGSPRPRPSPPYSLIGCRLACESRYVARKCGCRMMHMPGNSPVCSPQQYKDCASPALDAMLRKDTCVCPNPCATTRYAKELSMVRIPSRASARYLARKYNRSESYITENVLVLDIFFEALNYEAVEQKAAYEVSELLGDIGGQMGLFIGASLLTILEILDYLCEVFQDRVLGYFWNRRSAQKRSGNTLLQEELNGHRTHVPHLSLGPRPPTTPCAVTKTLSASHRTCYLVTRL
The experiment in a line: whole-cell patch clamp, HEK293, pH5.5-evoked sustained current at […] s. To be noted: peptide in pH 7.4 resting solution, pH 5.5 pulse, -50 mV. Format: cell-based. Background: In patch-clamp work, channel activity is measured electrically.

Assay [2] deals with T1, rat ASIC3 (rASIC3). Description: whole-cell patch clamp, HEK293, potentiation of pH5.5-evoked sustained current. The assay is classed as cell-based. To be noted: peptide applied in pH 7.4 resting solution, pH 5.5 pulse; positive modulator.

Ends that are not written are not given here.

For FRC̄R̄C̄Famide, the “Mean fold increase (I/Ictrl)” value on rat ASIC3 (rASIC3) [1] came to 34.08 fold.
For the substance FRC̄C̄RFamide, on rat ASIC3 (rASIC3) [1], the “Mean fold increase (I/Ictrl)” value is reported as 24.22 fold.
On to “FRCCRF-NH2 (cysteine pairing not given here)”, for which the EC50 on rat ASIC3 (rASIC3) [2] was 4.73 ± 0.8 µM.
On to “FRCRCF-NH2 (cysteine pairing not given here)”, for which the concentration giving a half-maximal response (EC50) on rat ASIC3 (rASIC3) [2] came out at 4.41 ± 0.95 µM.

The EC50 is the concentration needed to bring the measured effect to its halfway point.

The record behind these values is article doi:10.1101/2025.07.16.665058v1 (biorxiv, 2025).
